The values that follow come from PMC6885504 (American Journal of Cardiovascular Drugs, 2019).

Structures are written as SMILES. “Also recorded” adds a separate entry of the source. Where two headings read alike, the source gives them in different places.

The conditions of series [1]: cited from earlier work.
The conditions of series [2]: cited from earlier work. The source holds these as a separate data set.
The nature of the next series: Safety assessments. Conditions: for safety and tolerability: apixaban 10 mg alone and in combination with clarithromycin IR 500 mg bid, healthy adults. The format is in vivo, human.
The format of series [3] is in vivo, human.
The next series concerns CYP3A4. Conditions: cited from earlier work.
Where [4] appears, read: during treatment with the agent alone, of 19 subjects.
[5] abbreviates: whole study (apixaban alone, clarithromycin alone, both together).
Where [6] appears, read: coadministered with multiple doses of clarithromycin vs apixaban alone.

For orientation: half-life means how long it takes for the measured level to halve. `COc1ccc(-n2nc(C(N)=O)c3c2C(=O)N(c2ccc(N4CCCCC4=O)cc2)CC3)cc1` [Apixaban]: in series [1], the half-life is recorded as 12 h, the oral bioavailability is reported as ~50% and the “renal clearance as share of total systemic clearance” value is listed as ~27%. In addition, the “change in apixaban exposure” value in series [2] (coadministered with ketoconazole vs apixaban alone) is “approximately doubled; also recorded: twofold”. Further, in series [2] (coadministered with rifampin vs apixaban alone), the “decrease in apixaban exposure” value was 50%. Besides, the safety and tolerability result in “Safety assessments” is “Apixaban 10 mg alone and in combination with twice-daily clarithromycin immediate release 500 mg was safe and generally well-tolerated by healthy adult volunteers”. In the series “Safety assessments” (listed as apixaban), the safety and tolerability result was “safe and generally well-tolerated”. In addition, the “subjects experiencing additional AEs” value in the series “Safety assessments” (apixaban and clarithromycin together, of 18 subjects) was 22.2%. In addition, in “Safety assessments” (setting [4]), the “subjects reporting at least one AE” value came to 5.3%. For the same compound, in the series “Safety assessments” (setting [5]), the “bleeding-related AEs, deaths, serious AEs” value is reported as “no bleeding-related AEs, deaths, or serious AEs” and the “intensity of adverse events” value is “mild”. Moreover, in series [3] (setting [6]), the “increase in apixaban AUC(0–T)” value is on record as 60%, the “increase in apixaban AUC(INF)” value worked out at 60% and the “increase in apixaban Cmax” value is given as 30%. Also, in series [3] (concentration–time profiles day 1 and day 8 (Fig. 2)), the “time at which apixaban reached maximum concentration after dosing” value turned out to be 3 h.

Consider `CC[C@H]1OC(=O)[C@H](C)[C@@H](O[C@H]2C[C@@](C)(OC)[C@@H](O)[C@H](C)O2)[C@H](C)[C@@H](O[C@@H]2O[C@H](C)C[C@H](N(C)C)[C@H]2O)[C@](C)(OC)C[C@@H](C)C(=O)[C@H](C)[C@@H](O)[C@]1(C)O` [clarithromycin], for which, in the series with CYP3A4 (clarithromycin as inhibitor), the “increase in AUC of midazolam” value is on record as 260–860%. In the series “Safety assessments” (setting [4]), the “subjects reporting at least one AE” value turned out to be 42.1% and the “subjects with AEs considered related to study drug” value is given as 26.3%.

In the case of `CC(=O)N1CCN(c2ccc(OCC3COC(Cn4ccnc4)(c4ccc(Cl)cc4Cl)O3)cc2)CC1` (stereo not shown) [ketoconazole], the “increase in AUC of midazolam” value in the series with CYP3A4 (ketoconazole as inhibitor) is 420–1500%.
